Tested on: human prostate cancer cells (PC3)
Assay: Mitochondrial morphology and distribution by immunofluorescence staining, PC3
Assay type: cell-based
Details: 1 μM or 2.5 μM, 24 hours, anti-TOM20 staining
Method: The effects of isoplumbagin on mitochondrial morphology and distribution of OC3-IV2, U87, H1299 and PC3 cell lines were measured by immunofluorescence staining After OC3-IV2, U87, H1299, and PC3 cells were treated with DMSO, 1 μM, or 2.5 μM isoplumbagin for 24 hours, cells were fixed by 4% (v/v) paraformaldehyde and permeabilized by 0.1% (v/v) Triton X-100. Cells were incubated in blocking buffer containing 1% bovine serum albumin. After blocking, cells were incubated overnight with indicated primary antibodies against TOM20 (a mitochondria marker, sc-11415, Santa Cruz), and then incubated with Alexa Fluor 488-conjugated secondary antibodies (A11001, Invitrogen). Nucleus was stained with DAPI, actin was stained with rhodamine phalloidin (A12379, Invitrogen) and cells were mounted using Prolong Gold reagent (P36930, Invitrogen). 63 images were taken by LSM800 confocal microscopes (Zeiss).
FIGS. 5A-5D show the effect of isoplumbagin on mitochondrial morphogenesis and distribution of oral squamous cell carcinoma cells (OC3-IV2), human primary glioblastoma cells (U87), human non-small cell lung carcinoma cells (H1299) and human prostate cancer cells (PC3). Cells treated with either solvent control (DMSO) or isoplumbagin were determined by immunofluorescence staining using anti-TOM20 (mitochondria, green) antibody, rhodamine phalloidin (actin, red) and DAPI (nucleus, blue). […]

Structure (SMILES): CC1=CC(=O)c2cccc(O)c2C1=O [isoplumbagin, 5-hydroxy-3-methyl-1,4-naphthoquinone]
- mitochondrial morphogenesis and distribution: can alter the mitochondrial morphogenesis and distribution

— patent US20210113492A1, “METHOD FOR INHIBITING PROLIFERATION AND METASTASIS OF CANCER CELLS BY USING NAPHTHOQUINONE DERIVATIVE” (National Tsing Hua University, priority 2019, published 2021)
